Experimental data: article PMC4595804, “A strategy to discover decoy chemokine ligands with an anti-inflammatory activity” (Scientific Reports, 2015)
Like-named read-outs stand apart in the source and are kept apart here.

Tests used:
CCL22 [1] = molecular target: T1, CCL22 (Homo sapiens, UniProt O00626); test: Scratch wound assay, CCL22-mediated HaCat cell migration; assay type: cell-based; conditions: HaCat cells, 72 h, read-out: inhibition of CCL22-mediated wound closure
T1 construct: codes for the mature CCL17 or CCL22 with an N-terminal thioredoxin-hexahistidin (TRX- (His)6) tag; thioredoxin (TRX) (N, cleaved yes); (His)6 (N, cleaved yes); made in house; host or cells: E. coli BL21 (DE3)
T1 sequence (O00626 25-93): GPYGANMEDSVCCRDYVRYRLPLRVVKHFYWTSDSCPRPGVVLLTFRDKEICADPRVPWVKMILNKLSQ
Protocol: (§1) soluble formazan dye which can be detected by absorbance at 420-480nm. HUT78 T cells (or HaCat cells) were seeded on 24-well plates (200,000 cells per well) and were incubated […]
(§2) concentration ≤1% on cells). The background control was reserved as one well containing the culture medium only. The plates were incubated for 72h at 37°C. Three days later, the medium containing the neutraligands was removed, and WST-1 reagent (1:10 final dilution) (Ozyme) was added to each well for a 2h incubation at 37°C as the manufacturer’s recommendation. The plates were shaken and absorbance was measured at 450nm (reference wavelength 690nm) against the background control, using a multiwell plate reader (EnVision, Perkin Elmer). Assays were performed as three independent replicates.
(§3) In vitro cell migration assay (scratch wound test) […]
(§4) the wound closure was determined as the difference between wound width at times 0 and 72h. […]
(§5) doses). After 24h, cytotoxicity was evaluated in the wells using the Alamar Blue method. […]
(§6) before AA treatment. The activity of COX2 was determined by measuring PGE2 (Cayman) in the supernatants by EIA. […]

CCL22 [2] = molecular target: T1, CCL22; test: Tryptophan fluorescence assay on CCL22; assay type: binding
Protocol: Fluorescence measurements were performed on a spectrofluorometer (JobinYvon/Spex) in a quartz microcuvette at 20 °C. […] The fluorescence emission spectra were corrected by subtracting the emission scan of the compounds alone and data analysis was carried out with fluorescence intensities detected at 340 nm.

COX2 = molecular target: T2, COX2 (Homo sapiens, UniProt P35354); test: COX2 mediated PGE2 release in LPS-treated primary monocytes; assay type: cell-based; conditions: 100 µM, monocytes + LPS + arachidonic acid
T2 construct: endogenous in cells; host or cells: primary human monocytes treated with LPS
T2 sequence (P35354 18-604): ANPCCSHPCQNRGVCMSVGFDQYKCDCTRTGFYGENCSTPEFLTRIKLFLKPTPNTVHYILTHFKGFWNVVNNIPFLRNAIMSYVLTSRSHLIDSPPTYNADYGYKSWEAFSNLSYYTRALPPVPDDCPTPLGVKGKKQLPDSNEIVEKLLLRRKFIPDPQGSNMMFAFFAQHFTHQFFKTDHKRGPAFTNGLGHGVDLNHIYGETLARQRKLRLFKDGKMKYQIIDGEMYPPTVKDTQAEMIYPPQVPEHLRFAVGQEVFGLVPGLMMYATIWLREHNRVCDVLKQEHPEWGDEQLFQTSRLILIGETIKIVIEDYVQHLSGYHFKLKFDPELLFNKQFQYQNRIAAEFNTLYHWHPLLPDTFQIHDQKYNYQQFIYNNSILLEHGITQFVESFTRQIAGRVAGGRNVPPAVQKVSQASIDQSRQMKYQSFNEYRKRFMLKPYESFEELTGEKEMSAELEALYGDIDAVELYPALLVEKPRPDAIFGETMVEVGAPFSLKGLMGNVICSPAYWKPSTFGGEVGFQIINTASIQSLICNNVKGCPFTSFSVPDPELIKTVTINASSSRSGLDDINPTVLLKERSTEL
Protocol: the wound closure was determined as the difference between wound width at times 0 and 72h. This experiment was repeated three times.
Human primary monocytes were isolated from buffy coats of healthy human blood donors and seeded in 24-well plates (500,000 cells/ml in 1ml) for COX-1/2 activity or 96-well plates for cell viability experiments.
Cells were seeded in 96 well plates (5,000 cells/well in 200µl) for cytotoxicity testing (Alamar […]
doses). After 24h, cytotoxicity was evaluated in the wells using the Alamar Blue method. NaF (250µg/ml) was used as a control in this experiment.
Cyclooxygenase (COX) activity
COX1 mediated prostaglandin E2 (PGE2) release. Monocytes were treated with arachidonic […]
were then collected for the determination of PGE2 by enzyme immunoassay (EIA) […]
COX2 mediated prostaglandin E2 (PGE2) release. Monocytes were incubated with LPS (10U/ml) for 24h to induce COX2 protein synthesis. After renewal of medium (serum free), […]
before AA treatment. The activity of COX2 was determined by measuring PGE2 (Cayman) in the supernatants by EIA. Aspirin (10µM) and diclofenac (10µM) were used as control […]
NaF (250µg/ml) was used as a control (relative light unit, r.l.u). (c) Monocytes were treated […]
GPN136 (grey bars). The activity of COX1 was determined by measuring prostaglandin E2 (PGE2). […]
of COX2 was determined by measuring PGE2. […]

CCL17 = molecular target: T3, CCL17 (Homo sapiens, UniProt Q92583); test: Scratch wound assay, CCL17-mediated HaCat cell migration; assay type: cell-based; conditions: HaCat cells, 72 h, read-out: inhibition of CCL17-mediated wound closure
T3 construct: codes for the mature CCL17 or CCL22 with an N-terminal thioredoxin-hexahistidin (TRX- (His)6) tag; thioredoxin (TRX) (N, cleaved yes); (His)6 (N, cleaved yes); made in house; host or cells: E. coli BL21 (DE3)
T3 sequence (Q92583 24-94): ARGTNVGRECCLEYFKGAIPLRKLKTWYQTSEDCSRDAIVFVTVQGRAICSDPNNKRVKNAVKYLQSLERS
Protocol: as §1, §2, §3, §4, §5, §6

SMILES: O=C(OCC(O)CO)c1ccccc1O (centres unmarked) [GPN136, 2,3-dihydroxypropyl 2-hydroxybenzoate]
- inhibition at 10 µM (CCL22 [1]): 85.2%
- Kd (CCL22 [2]; 1.5 μM CCL22, tryptophan fluorescence at 340 nm, estimated, read-out: KD, high-affinity binding site class, on CCL22): < 0.05 µM
- Kd (CCL22 [2]; […] CCL22, tryptophan fluorescence at 340 nm, read-out: KD, low-affinity binding site class, on CCL22): 53 µM

SMILES: CC(C)=CCn1cnc2c1c(=O)n(C)c(=O)n2C [GPN279, 1,3-dimethyl-7-(3-methylbut-2-enyl)-1H-purine-2,6(3H, 7H)-dione]
- effect on COX2 activity (PGE2) (COX2): no effect
- inhibition at 10 µM (CCL17): 81.4%
